In assay [1] the target is T1, Angiotensin-I Converting Enzyme from rabbit lung (Oryctolagus cuniculus, UniProt P12822).
T1 construct: Angiotensin-I Converting Enzyme from rabbit lung; purchased Sigma (Barcelona, Spain); host or cells: rabbit lung tissue
T1 sequence (P12822 34-1310): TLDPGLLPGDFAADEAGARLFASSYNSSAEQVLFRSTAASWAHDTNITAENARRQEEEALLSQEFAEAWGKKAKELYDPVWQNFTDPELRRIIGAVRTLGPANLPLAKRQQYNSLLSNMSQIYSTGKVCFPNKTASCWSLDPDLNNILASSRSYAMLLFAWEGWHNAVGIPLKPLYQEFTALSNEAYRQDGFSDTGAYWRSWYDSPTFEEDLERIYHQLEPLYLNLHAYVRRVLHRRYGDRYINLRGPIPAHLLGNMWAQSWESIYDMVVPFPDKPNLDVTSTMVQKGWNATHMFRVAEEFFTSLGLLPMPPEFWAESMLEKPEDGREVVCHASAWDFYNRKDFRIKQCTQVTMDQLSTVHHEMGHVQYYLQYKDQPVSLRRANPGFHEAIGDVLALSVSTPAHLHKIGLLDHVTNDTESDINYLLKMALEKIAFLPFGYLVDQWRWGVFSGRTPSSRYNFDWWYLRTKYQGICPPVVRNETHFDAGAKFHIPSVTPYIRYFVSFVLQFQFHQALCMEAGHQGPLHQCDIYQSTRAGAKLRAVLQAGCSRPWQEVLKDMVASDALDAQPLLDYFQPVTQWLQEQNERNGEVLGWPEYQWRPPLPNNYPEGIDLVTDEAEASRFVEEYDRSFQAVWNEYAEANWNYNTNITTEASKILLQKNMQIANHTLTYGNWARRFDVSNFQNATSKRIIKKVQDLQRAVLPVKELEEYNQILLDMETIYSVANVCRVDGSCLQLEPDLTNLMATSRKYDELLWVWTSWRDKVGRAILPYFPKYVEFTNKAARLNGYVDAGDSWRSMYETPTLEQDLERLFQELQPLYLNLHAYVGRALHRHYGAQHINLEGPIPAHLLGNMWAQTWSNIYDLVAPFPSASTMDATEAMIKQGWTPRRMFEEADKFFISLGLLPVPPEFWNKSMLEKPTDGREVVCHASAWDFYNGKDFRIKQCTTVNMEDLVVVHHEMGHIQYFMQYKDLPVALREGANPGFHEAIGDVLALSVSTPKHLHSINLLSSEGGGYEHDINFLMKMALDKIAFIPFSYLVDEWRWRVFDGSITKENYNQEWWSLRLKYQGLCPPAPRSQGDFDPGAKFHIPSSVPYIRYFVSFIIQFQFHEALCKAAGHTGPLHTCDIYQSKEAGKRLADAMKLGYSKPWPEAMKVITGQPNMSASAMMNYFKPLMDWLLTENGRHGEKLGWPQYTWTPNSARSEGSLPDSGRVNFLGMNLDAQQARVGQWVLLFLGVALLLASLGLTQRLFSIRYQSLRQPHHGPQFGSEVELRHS
Nature of the assay: ACE-inhibitory (ACEI) activity, fluorimetric assay with o-Abz-Gly-p-Phe(NO2)-Pro substrate. Type of assay: biochemical. The following applies: for change of ACEI activity on structural change, vs. luteolin: compared with luteolin (Figure 3); for inhibition at 100 µM / inhibition at 500 µM: 0.5 h; for inhibition at 100 µM: mean of three experiments (Figure 2A); for relative IC50 ratio: IC50 relative to luteolin (1); for IC50: technical and biological triplicate, read-out: IC50 value (concentration that inhibits ACE activity by 50%). An excerpt:
o-aminobenzoylglycyl-p-nitro-phenylalanylproline (o-ABz-Gly-Phe(NO2)-Pro) was purchased from Bachem Feinchemikalien (Bubendorf, Switzerland). Five units of Angiotensin-I Converting Enzyme from rabbit lung and ZnCl2 were obtained from Sigma (Barcelona, Spain). […] Flavonoids were solubilized in dimethyl sulfoxide (DMSO) and prepared daily. In all experiments, the final concentration of DMSO was 0.4%. Distilled water was obtained from a Millipore Milli-Q® system.
Flavonoid solutions (100 and 500 µM) were prepared in DMSO (0.4%) daily. The 0.1 U/mL ACE solution stock was prepared in glycerol: water (1∶1), aliquoted and stored at −20°C. The 0.1 µM ZnCl2 stock solution was prepared and stored at 4°C. The ACE working solution was prepared daily by diluting it in 150 mM Tris buffer (pH 8.3) containing 0.1 µM ZnCl2.
ACEI activity was measured by a fluorimetric assay following the method of Sentandreu and Toldrá [43] with some modifications. […] Fluorescence was measured after 30 min in 96-well microplates (Thermo Scientific, Rochester, NY) using a multiscan microplate fluorimeter (Biotek. FL×800). Microplates (Thermo Scientific, Rochester, NY) were used in this assay. The excitation and emission wavelengths were 360 and 430 nm, respectively. The activity of each sample was tested in technical and biological triplicate.
The ACEI activity was calculated using the following formula: [drawing 1] where A is the fluorescence without the flavonoid solution, B is the fluorescence without ACE and C is the fluorescence in the presence of both ACE and the flavonoid solution. A flavonoid solution of 500 µM was selected on the basis of previous studies, [35], and the concentration of 100 µM was chosen because it is within the physiological concentration range. […] The IC50 of each selected flavonoid was tested in technical and biological triplicate. The results from three experiments are expressed as the mean ± SD and were performed in different platelet samples.

The test system of the next assay is ACE N domain. The arrangement: method as in PMID 11303049. The following applies: ACE inhibition with N-domain-specific inhibitor; cited from earlier work.
Setting [2] is: 100 µM flavonoid, purified lung ACE, 37°C, 30 min, read-out: percentage of ACE inhibition.
The mark [3] stands for this setting: 500 µM flavonoid, purified lung ACE, 37°C, 30 min, mean of three experiments (Figure 2B), read-out: percentage of ACE inhibition.
The mark [4] stands for this setting: read-out: percentage of ACE inhibition, 100 µM flavonoid, purified lung ACE, 37°C, 30 min.

Like-named read-outs stand apart in the source and are kept apart here. Where only a bound is given, the exact number is not on record here.

With `C[C@@H]1O[C@@H](OC[C@H]2O[C@@H](Oc3c(-c4ccc(O)c(O)c4)oc4cc(O)cc(O)c4c3=O)[C@H](O)[C@@H](O)[C@@H]2O)[C@H](O)[C@H](O)[C@H]1O` [Rutin, quercetin 3-O-glycoside], in assay [1] (100 µM), the “change of ACEI activity on structural change, vs. luteolin” value (“change of ACEI activity … vs. luteolin” for short) was -36%. Besides, the inhibition at 100 µM in assay [1] (setting [2]) is > 30%. Besides, in assay [1], the “relative IC50 ratio” value amounted to 2.78 and the IC50 was found to be 64 µM.
For the molecule `O=c1cc(-c2ccc(O)cc2)oc2cc(O)cc(O)c12` [Apigenin], in assay [1] (100 µM), the “change of ACEI activity … vs. luteolin” value is reported as −57% and the “reduction of ACEI activity relative to luteolin” value was determined as 57%. Also, the inhibition at 100 µM in assay [1] (setting [2]) amounted to 24.7%.
With `O=c1cc(-c2ccc(O)c(O)c2)oc2cc(O)cc(O)c12` [Luteolin], in assay [1], the “relative IC50 ratio” value was 1 and the IC50 is 23 µM.
Turning to `COc1ccc([C@@H]2CC(=O)c3c(O)cc(O)cc3O2)cc1O` [Hesperetin], the inhibition at 100 µM in assay [1] (setting [2]) worked out at 0.7%. In addition, in assay [1] (setting [3]), the inhibition at 500 µM was > 30%.
With `O=c1c(O)c(-c2ccc(O)cc2)oc2cc(O)cc(O)c12` [Kaempferol], the inhibition at 100 µM in assay [1] (setting [2]) was > 30%. In assay [1], the “relative IC50 ratio” value was determined as 7.74 and the IC50 was found to be 178 µM. Also, in assay [1] (relative to quercetin), the “increase in the IC50 relative to quercetin” value came out at 4 fold.
For the molecule `C[C@@H]1O[C@@H](O[C@H]2[C@H](Oc3cc(O)c4c(=O)cc(-c5ccc(O)cc5)oc4c3)O[C@H](CO)[C@@H](O)[C@@H]2O)[C@H](O)[C@H](O)[C@H]1O` [Rhoifolin, apigenin 7-O-glycoside], the inhibition at 100 µM in assay [1] (setting [2]) was > 30%. Besides, in assay [1], the “relative IC50 ratio” value was 7.96 and the IC50 came out at 183 µM.
In the case of `COc1ccc(-c2cc(=O)c3c(O)cc(O[C@@H]4O[C@H](CO[C@@H]5O[C@@H](C)[C@H](O)[C@@H](O)[C@H]5O)[C@@H](O)[C@H](O)[C@H]4O)cc3o2)cc1O` [Diosmin], in assay [1] (setting [2]), the inhibition at 100 µM came out at 9.3%. Also, the inhibition at 500 µM in assay [1] (setting [3]) is > 30%.
In the case of `CC(=O)N[C@@H](CC(=O)O)C(=O)N[C@@H](Cc1ccccc1)P(=O)(O)C[C@@H](C)C(=O)N[C@@H](C)C(N)=O` [RXP407], the “effect on blood pressure regulation” value in the assay with ACE N domain is “no effect on blood pressure regulation”.
With `O=c1cc(-c2ccc(O)cc2)oc2cc(O)cc(O)c12.[K]` [Apigenin K], in assay [1], the “relative IC50 ratio” value is on record as 8.52 and the IC50 was 196 µM.
For `O=c1c(-c2ccc(O)cc2)coc2cc(O)cc(O)c12` [Genistein], in assay [1] (setting [2]), the inhibition at 100 µM stood at 25.7%. In addition, the inhibition at 500 µM in assay [1] (setting [3]) is > 30%.
`COc1ccc(-c2cc(=O)c3c(O)cc(O)cc3o2)cc1O` [Diosmetin]: in assay [1] (100 µM), the “change of ACEI activity … vs. luteolin” value is given as −78% and the “reduction of ACEI activity relative to luteolin” value came to 78%. The inhibition at 100 µM in assay [1] (setting [2]) was found to be 12.5%.
Consider `O=C1C[C@@H](c2ccc(O)cc2)Oc2cc(O)cc(O)c21.[K]` [Naringenin K], for which the “percentage of ACE inhibition” value in assay [1] (500 µM flavonoid, purified lung ACE, 37°C, 30 min, mean of three experiments (Figure 2B), listed as narigenin K) was “higher than 30%”.
`C[C@@H]1O[C@@H](O[C@H]2[C@H](Oc3cc(O)c4c(c3)O[C@H](c3ccc(O)cc3)CC4=O)O[C@H](CO)[C@@H](O)[C@@H]2O)[C@H](O)[C@H](O)[C@H]1O` [Naringin]: the inhibition at 100 µM in assay [1] (setting [2]) was 4.5%. For the same molecule, the inhibition at 500 µM in assay [1] (setting [3]) is 23.3%.
`Oc1cc(O)c2c(c1)O[C@H](c1ccc(O)c(O)c1)[C@H](O)C2` [Epicatechin]: the “change of ACEI activity … vs. luteolin” value in assay [1] (100 µM) was −74%. Further, the inhibition at 100 µM in assay [1] (setting [2]) was 15%. Further, the inhibition at 500 µM in assay [1] (setting [3]) was > 30%.
For the molecule `Oc1cc(O)c2c(c1)O[C@H](c1ccc(O)c(O)c1)[C@@H](O)C2` [Catechin], the inhibition at 100 µM in assay [1] (setting [2]) is 7.5%. Further, the inhibition at 500 µM in assay [1] (setting [3]) turned out to be 29%.
Regarding `COc1ccc(C2CC(=O)c3c(O)cc(OC4OC(COC5OC(C)C(O)C(O)C5O)C(O)C(O)C4O)cc3O2)cc1O` (centres unmarked) [Hesperidin], in assay [1] (setting [4]), the inhibition at 100 µM worked out at 0%. In addition, the inhibition at 500 µM in assay [1] (read-out: percentage of ACE inhibition, 500 µM flavonoid, purified lung ACE, 37°C, 30 min, mean of three experiments (Figure 2B)) came to 17%.
In the case of `O=C1C[C@@H](c2ccc(O)cc2)Oc2cc(O)cc(O)c21` [Naringenin], in assay [1] (100 µM, compared with apigenin (Figure 3)), the “change of ACEI activity on structural change, vs. apigenin” value is listed as −91%. Moreover, in assay [1] (100 µM, vs. apigenin), the “reduction of ACEI activity vs. apigenin” value amounted to 91%. In addition, the inhibition at 100 µM in assay [1] (setting [2]) amounted to 2.3%. The inhibition at 500 µM in assay [1] (setting [3]) was found to be 22.3%.
As for `O=c1c(O)c(-c2ccc(O)c(O)c2)oc2cc(O)cc(O)c12` [Quercetin], the “change of ACEI activity … vs. luteolin” value in assay [1] (100 µM) is listed as −44%. Besides, in assay [1] (setting [4]), the inhibition at 100 µM was > 30%.

The values are drawn from publication PMC3504033, “Inhibition of Angiotensin-Converting Enzyme Activity by Flavonoids: Structure-Activity Relationship Studies” (PLoS ONE, 2012).
